In patent publication US20200055044A1, “METHODS AND SYSTEMS FOR MICRO PLATELET FUNCTION TESTING USING AN INTEGRATED MINIATURIZED PLATELET FUNCTION ANALYZER” (Atantares Corp., priority 2016, published 2020):

Tested on: platelets in fresh anticoagulated human blood
Assay: impedance-based micro platelet function test with microfabricated 3D electrodes in a microfluidic channel
Type: cell-based
Details: 100 μM ADP; human blood with Calcium Chloride and 10 μM PPACK; flow rate 25 μL/min; six frequencies 20 Hz to 2 MHz; logged for 2000 s; FIG. 16
Excerpt: Although not shown explicitly, electrodes of different heights (125 μm, 250 μm), diameters (100 μm, 250 μm, 500 μm), and gaps in-between electrodes (500 μm, 1000 μm) were fabricated using the same process. Pairs of 3D electrodes where each electrode comprises a number of electrically connected metal-coated cylindrical cores arranged in a grid were also fabricated. […] Wires soldered to the patterned metal pads on the substrates were used to connect the 3D electrodes to an Agilent E4980A LCR meter. FIG. 16 show a set 1600 of experimental data using electrodes fabricated according to the process discussed above. 1 mL of fresh anticoagulated human blood, obtained within 4 hrs of use, was mixed with 65 μL of 100 mg/mL Calcium Chloride and 10 μM of D-Phenylalanyl-prolyl-arginyl chloromethyl ketone (PPACK). […] The impedance of the electrodes was continuously monitored and logged at six different frequencies (20 Hz, 200 Hz, 1 kHz, 15 kHz, 200 kHz, 2 MHz) using a custom MATLAB program running on a computer interfaced to the LCR meter. […] The peak impedance values reached or the areas under the impedance-time curves or other measures from these curves may be analyzed and interpreted as indications of platelet activity in response to the modifying reagent added (e.g. ADP). […]

Nc1ncnc2c1ncn2[C@@H]1O[C@H](COP(=O)(O)OP(=O)(O)O)[C@@H](O)[C@H]1O [ADP, adenosine diphosphate]
change in electrode impedance after addition of platelet activation reagent: increase in electrode impedances at all frequencies
